Results: patent US9663529B2, “Tricyclic pyrido-carboxamide derivatives as rock inhibitors” (BRISTOL-MYERS SQUIBB COMPANY, priority 2013, dated 2017)

These compounds were tested against ROCK2 (Homo sapiens (Human), UniProt O75116) (assay: ROCK assay (Caliper LABCHIP peptide phosphorylation, 5 μM ATP)). Details: 1.5 μM peptide substrate.
Type: biochemical

Chain of ROCK2 (O75116 whole entry, species assumed): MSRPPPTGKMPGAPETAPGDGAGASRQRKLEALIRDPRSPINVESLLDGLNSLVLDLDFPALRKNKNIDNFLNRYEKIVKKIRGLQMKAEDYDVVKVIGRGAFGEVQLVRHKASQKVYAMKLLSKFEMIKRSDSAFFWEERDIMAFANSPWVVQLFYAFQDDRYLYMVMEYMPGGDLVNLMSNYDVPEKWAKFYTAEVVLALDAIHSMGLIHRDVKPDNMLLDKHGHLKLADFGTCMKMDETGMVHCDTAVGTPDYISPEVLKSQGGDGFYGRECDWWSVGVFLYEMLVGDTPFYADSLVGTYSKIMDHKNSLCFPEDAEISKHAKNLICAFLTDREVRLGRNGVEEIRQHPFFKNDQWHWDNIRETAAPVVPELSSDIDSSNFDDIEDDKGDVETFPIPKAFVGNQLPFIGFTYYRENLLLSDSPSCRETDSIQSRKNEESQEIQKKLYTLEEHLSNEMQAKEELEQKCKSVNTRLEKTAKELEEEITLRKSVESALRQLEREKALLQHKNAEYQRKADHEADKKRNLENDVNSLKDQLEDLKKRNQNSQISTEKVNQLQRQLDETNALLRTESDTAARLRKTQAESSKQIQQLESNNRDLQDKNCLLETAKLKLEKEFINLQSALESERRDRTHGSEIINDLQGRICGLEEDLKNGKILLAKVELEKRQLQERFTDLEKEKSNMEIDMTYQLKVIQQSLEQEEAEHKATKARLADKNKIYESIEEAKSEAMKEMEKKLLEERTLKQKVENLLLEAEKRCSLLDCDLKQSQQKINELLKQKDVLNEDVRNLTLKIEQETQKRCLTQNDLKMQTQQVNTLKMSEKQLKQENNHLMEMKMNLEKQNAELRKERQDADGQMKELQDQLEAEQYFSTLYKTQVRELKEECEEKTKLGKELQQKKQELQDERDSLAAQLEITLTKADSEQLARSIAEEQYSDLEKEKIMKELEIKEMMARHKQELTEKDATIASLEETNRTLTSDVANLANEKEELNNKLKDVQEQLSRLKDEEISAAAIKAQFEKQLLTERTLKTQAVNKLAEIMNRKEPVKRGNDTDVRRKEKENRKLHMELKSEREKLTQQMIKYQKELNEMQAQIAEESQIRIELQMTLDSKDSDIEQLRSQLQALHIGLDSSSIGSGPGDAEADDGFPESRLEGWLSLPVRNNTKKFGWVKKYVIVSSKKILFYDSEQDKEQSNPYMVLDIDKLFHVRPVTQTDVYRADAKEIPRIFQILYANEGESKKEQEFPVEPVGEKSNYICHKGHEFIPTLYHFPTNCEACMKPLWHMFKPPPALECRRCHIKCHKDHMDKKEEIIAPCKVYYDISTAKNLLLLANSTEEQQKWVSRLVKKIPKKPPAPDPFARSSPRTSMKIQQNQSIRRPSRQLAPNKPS

| SMILES | IC50 |
| --- | --- |
| O=C(Cc1c(Cl)cccc1Cl)Nc1ccc2c(c1)OCc1cnccc1-2 [Example I-21, N-(5H-chromeno[3,4-c]pyridin-8-yl)-2-(2,6-dichlorophenyl) acetamide] | 161 nM |
| N#Cc1cccc(CC(=O)Nc2ccc3c(c2)[nH]c2cnccc23)c1 [Example IV-5, 2-(3-Cyanophenyl)-N-(9H-pyrido[3,4-b]indol-7-yl)acetamide] | 383 nM |
| O=C(Nc1ccc2c(c1)OCc1cnccc1-2)c1cncnc1 [Example I-45, N-(5H-chromeno[3,4-c]pyridin-8-yl) pyrimidine-5-carboxamide] | 1980 nM |
| COC(=O)c1ccc(C(=O)Nc2ccc3c(c2)OCc2cnccc2-3)cc1 [Example I-56, methyl 4-(5H-chromeno[3,4-c]pyridin-8-ylcarbamoyl) benzoate] | 626 nM |
| O=C(Cc1ccncc1)Nc1ccc2c(c1)OCc1cnccc1-2 [Example I-34, N-(5H-chromeno[3,4-c]pyridin-8-yl)-2-(pyridin-4-yl) acetamide] | 207 nM |
| O=C(Nc1ccc2c(c1)OCc1cnccc1-2)c1ccccc1Cl [Example I-51, 2-chloro-N-(5H-chromeno[3,4-c]pyridin-8-yl)benzamide] | 1150 nM |
| O=C(NCCc1ccccc1F)Nc1ccc2c(c1)OCc1cnccc1-2 [II-7, 1-(5H-chromeno[3,4-c]pyridin-8-yl)-3-(2-fluorophenethyl)urea] | 233 nM |
| O=C(Nc1ccc2c(c1)OCc1cnccc1-2)c1cscn1 [Example I-44, N-(5H-chromeno[3,4-c]pyridin-8-yl) thiazole-4-carboxamide] | 1450 nM |
| O=C(CCc1ccc(Cl)cc1)Nc1ccc2c(c1)OCc1cnccc1-2 [Example I-37, 3-(4-chlorophenyl)-N-(5H-chromeno [3,4-c]pyridin-8-yl) propanamide] | 323 nM |
| O=C(Cc1ccc(C(F)(F)F)cc1)Nc1ccc2c(c1)OCc1cnccc1-2 [Example I-69, N-(5H-chromeno[3,4-c]pyridin-8-yl)-2-(4-(trifluoromethyl)phenyl)acetamide] | 1080 nM |
| O=C(Nc1cccnc1)Nc1ccc2c(c1)OCc1cnccc1-2 [II-5, 1-(5H-chromeno[3,4-c]pyridin-8-yl)-3-(pyridin-3-yl)urea] | 1420 nM |
| O=C(Nc1ccc2c(c1)OCc1cnccc1-2)c1ccccc1-c1ccccc1 [Example I-65, N-(5H-chromeno[3,4-c]pyridin-8-yl) biphenyl-2-carboxamide] | 1220 nM |
| O=C(Nc1ccc2c(c1)OCc1cnccc1-2)c1csc(-c2ccncc2)n1 [Example I-71, N-(5H-chromeno[3,4-c]pyridin-8-yl)-2-(pyridin-4-yl)thiazole-4-carboxamide] | 316 nM |
| O=C(Cc1cc(F)cc(C(F)(F)F)c1)Nc1ccc2c(c1)OCc1cnccc1-2 [Example I-23, N-(5H-chromeno[3,4-c]pyridin-8-yl)-2-(3-fluoro-5-(trifluoromethyl)phenyl)acetamide] | 368 nM |
| N#Cc1ccc(C(=O)Nc2ccc3c(c2)OCc2cnccc2-3)cc1 [Example I-54, N-(5H-chromeno[3,4-c]pyridin-8-yl)-4-cyanobenzamide] | 2560 nM |
| CS(=O)(=O)c1ccc(C(=O)Nc2ccc3c(c2)OCc2cnccc2-3)cc1 [Example I-29, N-(5H-chromeno[3,4-c]pyridin-8-yl)-4-(methylsulfonyl) benzamide] | 2050 nM |
| O=C(CCCc1ccccc1)Nc1ccc2c(c1)OCc1cnccc1-2 [Example I-32, N-(5H-chromeno[3,4-c]pyridin-8-yl)-4-phenylbutanamide] | 682 nM |
| O=C(Cc1cnccn1)Nc1ccc2c(c1)OCc1cnccc1-2 [Example I-49, N-(5H-chromeno[3,4-c]pyridin-8-yl)-2-(pyrazin-2-yl) acetamide] | 1250 nM |
| CC(C)(C(=O)Nc1ccc2c(c1)OCc1cnccc1-2)c1ccccc1 [Example I-36, N-(5H-chromeno [3,4-c]pyridin-8-yl)-2-methyl-2-phenylpropanamide] | 204 nM |
| O=C(Nc1ccc2c(c1)OCc1cnccc1-2)c1cccc(F)c1 [Example I-52, N-(5H-chromeno[3,4-c]pyridin-8-yl)-3-fluorobenzamide] | 3560 nM |
| O=C(Cc1cccc(F)c1)Nc1ccc2c(c1)[nH]c1cnccc12 [Example IV-3, 2-(3-Fluorophenyl)-N-(9H-pyrido[3,4-b]indol-7-yl)acetamide] | 21 nM |
| COc1ccc(CC(=O)Nc2ccc3c(c2)OCc2cnccc2-3)cc1 [Example I-31, N-(5H-chromeno[3,4-c]pyridin-8-yl)-2-(4-methoxyphenyl) acetamide] | 497 nM |
| O=C(NCCc1cccc(Cl)c1)Nc1ccc2c(c1)OCc1cnccc1-2 [II-10, 1-(3-chlorophenethyl)-3-(5H-chromeno[3,4-c]pyridin-8-yl) urea] | 248 nM |
| O=C(Cc1ccc(Cl)cc1)Nc1ccc2c(c1)OCc1cnccc1-2 [Example I-13, 2-(4-chlorophenyl)-N-(5H-chromeno [3,4-c]pyridin-8-yl) acetamide] | 134 nM |
| O=C(CCn1ccnc1)Nc1ccc2c(c1)OCc1cnccc1-2 [Example I-48, N-(5H-chromeno[3,4-c]pyridin-8-yl)-3-(1H-imidazol-1-yl) propanamide] | 992 nM |

| SMILES | IC50 |
| --- | --- |
| CC(=O)Nc1cccc(C(=O)Nc2ccc3c(c2)OCc2cnccc2-3)c1 [Example I-35, 3-acetamido-N-(5H-chromeno[3,4-c]pyridin-8-yl) benzamide] | 434 nM |
| O=C(Nc1ccc2c(c1)OCc1cnccc1-2)c1csnn1 [Example I-41, N-(5H-chromeno[3,4-c]pyridin-8-yl)-1,2,3-thiadiazole-4-carboxamide] | 2760 nM |
| NS(=O)(=O)c1ccc(C(=O)Nc2ccc3c(c2)OCc2cnccc2-3)cc1 [Example I-40, N-(5H-chromeno[3,4-c]pyridin-8-yl)-4-sulfamoylbenzamide] | 500 nM |
| CS(=O)(=O)c1ccc(CC(=O)Nc2ccc3c(c2)OCc2cnccc2-3)cc1 [Example I-20, N-(5H-chromeno[3,4-c]pyridin-8-yl)-2-(4-(methylsulfonyl)phenyl)acetamide] | 1760 nM |
| COc1ccc(CCC(=O)Nc2ccc3c(c2)OCc2cnccc2-3)cc1 [Example I-57, N-(5H-chromeno[3,4-c]pyridin-8-yl)-3-(4-methoxyphenyl) propanamide] | 1140 nM |
| O=C(Nc1ccc2c(c1)OCc1cnccc1-2)C1Cc2ccccc2C1 [Example I-72, N-(5H-chromeno[3,4-c]pyridin-8-yl)-2,3-dihydro-1H-indene-2-carboxamide] | 58.7 nM |
| COc1ccc(CC(=O)Nc2ccc3c(c2)OCc2cnccc2-3)cc1OC [Example I-19, N-(5H-chromeno[3,4-c]pyridin-8-yl)-2-(3,4-dimethoxyphenyl) acetamide] | 2500 nM |
| O=C(Nc1ccc2c(c1)OCc1cnccc1-2)c1nc2ccccc2[nH]1 [Example I-73, N-(5H-chromeno[3,4-c]pyridin-8-yl)-1H-benzo[d]imidazole-2-carboxamide] | 619 nM |
| Cn1cccc1C(=O)Nc1ccc2c(c1)OCc1cnccc1-2 [Example I-64, N-(5H-chromeno[3,4-c]pyridin-8-yl)-1-methyl-1H-pyrrole-2-carboxamide] | 2960 nM |
| O=C(Cc1ccccn1)Nc1ccc2c(c1)OCc1cnccc1-2 [Example I-33, N-(5H-chromeno[3,4-c]pyridin-8-yl)-2-(pyridin-2-yl) acetamide] | 367 nM |
| O=C(Nc1ccc2c(c1)OCc1cnccc1-2)c1cnccn1 [Example I-30, N-(5H-chromeno[3,4-c]pyridin-8-yl) pyrazine-2-carboxamide] | 2940 nM |
| O=C(Nc1ccc2c(c1)OCc1cnccc1-2)c1ccc2ccccc2c1 [Example I-61, N-(5H-chromeno[3,4-c]pyridin-8-yl)-2-naphthamide] | 4720 nM |
| O=C(CC(c1ccccc1)c1ccccc1)Nc1ccc2c(c1)OCc1cnccc1-2 [Example I-67, N-(5H-chromeno[3,4-c]pyridin-8-yl)-3,3-diphenylpropanamide] | 471 nM |
| O=C(Cc1ccc(F)cc1Cl)Nc1ccc2c(c1)OCc1cnccc1-2 [Example I-10, 2-(2-chloro-4-fluorophenyl)-N-(5H-chromeno[3,4-c]pyridin-8-yl)acetamide] | 6.27 nM |
| O=C(Nc1ccc2c(c1)OCc1cnccc1-2)c1cccc(Cl)c1 [Example I-53, 3-chloro-N-(5H-chromeno[3,4-c]pyridin-8-yl)benzamide] | 4500 nM |
| COc1ccc(CCNC(=O)Nc2ccc3c(c2)OCc2cnccc2-3)cc1 [II-6, 1-(5H-chromeno[3,4-c]pyridin-8-yl)-3-(4-methoxyphenethyl) urea] | 1610 nM |
| O=C(Cc1ccccc1)Nc1ccc2c(c1)[nH]c1cnccc12 [Example IV-4, 2-Phenyl-N-(9H-pyrido[3,4-b]indol-7-yl)acetamide] | 9.5 nM |
| O=C(Nc1ccc2c(c1)OCc1cnccc1-2)Nc1ccccc1Cl [II-2, 1-(2-chlorophenyl)-3-(5H-chromeno[3,4-c]pyridin-8-yl) urea] | 557 nM |
| O=C(CCc1ccc(O)cc1)Nc1ccc2c(c1)OCc1cnccc1-2 [Example I-58, N-(5H-chromeno[3,4-c]pyridin-8-yl)-3-(4-hydroxyphenyl) propanamide] | 111 nM |
| Cc1cc(F)ccc1CC(=O)Nc1ccc2c(c1)OCc1cnccc1-2 [Example I-24, N-(5H-chromeno[3,4-c]pyridin-8-yl)-2-(4-fluoro-2-methylphenyl) acetamide] | 11.1 nM |
| O=C(Nc1ccc2c(c1)OCc1cnccc1-2)C(O)c1ccccc1 (centres unmarked) [Example I-46, N-(5H-chromeno[3,4-c]pyridin-8-yl)-2-hydroxy-2-phenylacetamide] | 51.2 nM |
| Cc1cc(C)cc(CC(=O)Nc2ccc3c(c2)OCc2cnccc2-3)c1 [Example I-16, N-(5H-chromeno[3,4-c]pyridin-8-yl)-2-(3,5-dimethylphenyl) acetamide] | 110 nM |
| Cc1ccccc1CC(=O)Nc1ccc2c(c1)OCc1cnccc1-2 [Example I-15, N-(5H-chromeno[3,4-c]pyridin-8-yl)-2-o-tolylacetamide] | 16.7 nM |
| O=C(Nc1ccc2c(c1)OCc1cnccc1-2)c1ccccc1 [Example I-50, N-(5H-chromeno[3,4-c]pyridin-8-yl)benzamide] | 4810 nM |
| CSc1ccc(CC(=O)Nc2ccc3c(c2)OCc2cnccc2-3)cc1 [Example I-25, N-(5H-chromeno[3,4-c]pyridin-8-yl)-2-(4-(methylthio)phenyl) acetamide] | 295 nM |
